The text below walks through data of ChEMBL document CHEMBL1255556, “6-Alkoxyisoindolin-1-one based dopamine D2 partial agonists as potential antipsychotics” (Bioorg Med Chem Lett, 2010).

One may read the Ki as the dissociation constant of the complex between target and ligand, obtained from inhibition or displacement. High values mean lower affinity, low ones higher affinity.

The target in assay [1] is 5-hydroxytryptamine receptor 2A (Homo sapiens, UniProt P28223). Put plainly: Binding affinity to human 5HT2A receptor.
5-hydroxytryptamine receptor 2A, sequence (P28223 whole entry): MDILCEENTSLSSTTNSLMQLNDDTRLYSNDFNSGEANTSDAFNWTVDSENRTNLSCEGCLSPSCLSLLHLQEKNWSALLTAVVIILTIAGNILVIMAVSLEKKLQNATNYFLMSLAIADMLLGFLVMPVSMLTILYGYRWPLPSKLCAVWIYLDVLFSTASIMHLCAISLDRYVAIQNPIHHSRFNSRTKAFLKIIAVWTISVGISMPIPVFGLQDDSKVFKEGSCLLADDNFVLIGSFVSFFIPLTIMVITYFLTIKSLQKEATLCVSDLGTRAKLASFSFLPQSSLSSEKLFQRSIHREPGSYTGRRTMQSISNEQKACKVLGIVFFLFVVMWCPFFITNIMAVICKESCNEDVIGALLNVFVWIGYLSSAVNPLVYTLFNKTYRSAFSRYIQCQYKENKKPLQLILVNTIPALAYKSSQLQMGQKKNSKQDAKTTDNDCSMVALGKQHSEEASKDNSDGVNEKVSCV
Assay [2] addresses T1, Sodium-dependent serotonin transporter (Homo sapiens, UniProt P31645). In words: Displacement of [3H]-citalopram from human serotonin transporter expressed in HEK 293 cells. The format is cell-based, HEK293. For orientation: Displacement assays read how much labelled ligand stays bound in the presence of the test substance.
In assay [3] the target is T2, 5-hydroxytryptamine receptor 1A (Homo sapiens, UniProt P08908).
T2 sequence (P08908 whole entry): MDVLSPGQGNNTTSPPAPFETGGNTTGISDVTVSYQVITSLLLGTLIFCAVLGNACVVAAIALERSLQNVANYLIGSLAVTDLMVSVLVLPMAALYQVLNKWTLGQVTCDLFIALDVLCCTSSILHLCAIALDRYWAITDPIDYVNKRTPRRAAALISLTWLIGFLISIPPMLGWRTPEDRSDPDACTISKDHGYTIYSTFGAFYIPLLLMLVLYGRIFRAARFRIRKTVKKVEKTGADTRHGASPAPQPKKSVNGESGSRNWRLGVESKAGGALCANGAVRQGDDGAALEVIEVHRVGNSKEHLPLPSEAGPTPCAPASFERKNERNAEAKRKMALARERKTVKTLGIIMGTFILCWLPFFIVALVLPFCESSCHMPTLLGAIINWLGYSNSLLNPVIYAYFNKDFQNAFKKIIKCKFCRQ
In words: Binding affinity to human 5HT1A receptor expressed in HeLa cells by scintillation proximity assay. The format is cell-based. On the technique in general: Scintillation proximity formats need no separation of bound from free tracer.

Assay [4] addresses T1, Sodium-dependent serotonin transporter. In words: Displacement of [3H]-citalopram from human serotonin transporter expressed in HEK 293 cells by scintillation proximity assay. The format is cell-based, HEK293.
Assay [5] addresses T2, 5-hydroxytryptamine receptor 1A. Put plainly: biochemical.
Description: Displacement of [3H]-8-OH-DPAT from human 5HT1A receptor expressed in HeLa cells
Assay [6] deals with Voltage-gated inwardly rectifying potassium channel KCNH2 (Homo sapiens, UniProt Q12809).
Voltage-gated inwardly rectifying potassium channel KCNH2, sequence (Q12809 whole entry): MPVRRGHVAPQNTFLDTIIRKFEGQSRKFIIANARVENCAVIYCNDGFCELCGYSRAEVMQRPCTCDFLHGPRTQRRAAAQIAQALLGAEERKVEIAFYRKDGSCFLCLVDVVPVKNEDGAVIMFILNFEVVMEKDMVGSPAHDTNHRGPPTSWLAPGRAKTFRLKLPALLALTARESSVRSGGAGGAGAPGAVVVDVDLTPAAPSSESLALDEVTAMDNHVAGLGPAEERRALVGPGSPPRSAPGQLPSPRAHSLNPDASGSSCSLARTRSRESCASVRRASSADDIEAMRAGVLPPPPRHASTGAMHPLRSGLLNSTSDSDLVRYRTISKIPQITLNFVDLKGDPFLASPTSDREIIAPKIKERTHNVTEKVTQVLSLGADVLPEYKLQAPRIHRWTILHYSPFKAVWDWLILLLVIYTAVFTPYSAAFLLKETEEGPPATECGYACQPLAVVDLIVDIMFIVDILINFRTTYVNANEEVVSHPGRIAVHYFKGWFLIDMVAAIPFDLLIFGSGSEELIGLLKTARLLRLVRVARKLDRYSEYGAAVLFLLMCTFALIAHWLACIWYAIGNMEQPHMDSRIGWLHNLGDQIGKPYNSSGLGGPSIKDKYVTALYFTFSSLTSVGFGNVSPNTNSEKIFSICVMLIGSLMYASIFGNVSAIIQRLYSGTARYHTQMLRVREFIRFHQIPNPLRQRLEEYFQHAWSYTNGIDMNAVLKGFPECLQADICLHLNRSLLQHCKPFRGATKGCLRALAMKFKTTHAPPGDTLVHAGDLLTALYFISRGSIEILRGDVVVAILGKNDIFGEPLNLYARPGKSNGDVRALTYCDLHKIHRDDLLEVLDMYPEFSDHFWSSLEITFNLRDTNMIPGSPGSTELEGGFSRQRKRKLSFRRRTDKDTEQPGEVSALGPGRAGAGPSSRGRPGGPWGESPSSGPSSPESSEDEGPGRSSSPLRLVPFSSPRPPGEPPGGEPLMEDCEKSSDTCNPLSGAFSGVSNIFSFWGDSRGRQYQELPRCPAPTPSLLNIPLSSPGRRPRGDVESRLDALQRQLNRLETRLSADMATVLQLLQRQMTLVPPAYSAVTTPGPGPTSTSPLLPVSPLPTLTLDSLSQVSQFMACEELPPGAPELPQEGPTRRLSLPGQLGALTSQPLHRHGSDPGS
Description: Displacement of [3H]dofetilide from human ERG

T1 sequence (P31645 whole entry): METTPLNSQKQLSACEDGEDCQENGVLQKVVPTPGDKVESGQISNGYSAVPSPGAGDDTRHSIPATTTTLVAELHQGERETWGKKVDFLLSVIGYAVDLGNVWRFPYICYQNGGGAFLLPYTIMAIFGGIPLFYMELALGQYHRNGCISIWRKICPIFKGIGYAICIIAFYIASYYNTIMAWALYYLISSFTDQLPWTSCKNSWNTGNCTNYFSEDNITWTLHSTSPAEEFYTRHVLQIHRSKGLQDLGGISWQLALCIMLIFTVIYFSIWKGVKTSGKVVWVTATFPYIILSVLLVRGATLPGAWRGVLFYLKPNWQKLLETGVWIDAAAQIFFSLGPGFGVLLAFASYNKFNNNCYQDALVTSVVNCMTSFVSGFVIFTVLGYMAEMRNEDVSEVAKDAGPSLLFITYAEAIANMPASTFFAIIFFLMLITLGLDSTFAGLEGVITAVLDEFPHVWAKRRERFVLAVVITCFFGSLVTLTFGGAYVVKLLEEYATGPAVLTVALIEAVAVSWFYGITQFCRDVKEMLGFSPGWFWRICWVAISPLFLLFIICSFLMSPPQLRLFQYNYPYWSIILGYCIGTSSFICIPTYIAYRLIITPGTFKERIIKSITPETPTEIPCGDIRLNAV

Regarding `O=C1NCc2ccc(OCCCN3CCN(c4cccc5ccccc45)CC3)c(F)c21`, the inhibitory constant (Ki) in assay [1] came to 2.21 nM; in assay [2], 84.7 nM; in assay [3] it was 0.128 nM.

For the compound `O=C1NCc2ccc(OCCCCN3CCN(c4cccc5c4CCC5)CC3)cc21`, the results for the Ki in assay [1] and in assay [3] were 10.1 nM and 0.74 nM, respectively.

`O=C1NCc2ccc(OCCCN3CCN(c4cccc5ccccc45)CC3)c(Cl)c21`: the Ki in assay [4] was found to be 104 nM; in assay [1] it was 2.06 nM; in assay [3] it was 0.786 nM.

Take `O=C1NCc2cc(F)c(OCCCN3CCN(c4cccc5ccc(F)cc45)CC3)cc21`: the Ki in assay [4] was 419 nM; in assay [1], 2.68 nM; in assay [2], 13.6 nM; in assay [3], 0.341 nM.

For `O=C1NCc2ccc(OCCCN3CCN(c4cccc5cccc(F)c45)CC3)cc21`, the figures for the Ki in assay [5] and in assay [6] were 0.0141 nM and 1290 nM, respectively.

For the compound `O=C1NCc2ccc(OCCCN3CCN(c4cccc5c4CCO5)CC3)cc21`, the values for the Ki in assay [1] and in assay [3] were 4.29 nM and 1.46 nM, respectively.

On to `O=C1NCc2ccc(OCCCN3CCN(c4cccc5ccc(F)cc45)CC3)cc21`, for which the results for the Ki in assay [5] and in assay [1] were 0.0447 nM and 3.37 nM, respectively.

In the case of `c1ccc2c(N3CCN(CCCCOc4ccc5c(c4)CNC5)CC3)cccc2c1`, the Ki is 0.204 nM in assay [5], 5.07 nM in assay [1] and 1560 nM in assay [6].

Turning to `O=C1NCc2cc(F)c(OCCCCN3CCN(c4cccc5cc(F)ccc45)CC3)cc21`, the Ki in assay [4] was 13 nM; in assay [1], 13.8 nM; in assay [2] it was 9.1 nM; in assay [3] it was 2.71 nM.

With `O=C1NCc2ccc(OCCCCN3CCN(c4cccc5c4OCCC5)CC3)cc21`, the Ki came out at 17.1 nM in assay [1] and 0.863 nM in assay [3].

Regarding `O=C1NCc2ccc(OCCCCN3CCN(c4cccc5cccc(F)c45)CC3)c(Cl)c21`, the Ki in assay [4] amounted to 213 nM; in assay [1], 1.13 nM; in assay [3], 4.25 nM.

Consider `O=C1NCc2ccc(OCCCCN3CCN(c4cccc5c4CCOC5)CC3)cc21`, for which the affinity in assay [5] corresponds to a Ki of 1.99 nM.

For the compound `O=C1NCc2cc(F)c(OCCCCN3CCN(c4cccc5cccc(F)c45)CC3)cc21`, the Ki in assay [4] was determined as 42.6 nM; in assay [1], 3.49 nM; in assay [2], 10.5 nM; in assay [3], 0.118 nM.

As for `Cc1c(OCCCCN2CCN(c3cccc4cc(F)ccc34)CC2)ccc2c1C(=O)NC2`, the Ki turned out to be 47 nM in assay [4], 14 nM in assay [1] and 17.5 nM in assay [3].

For the compound `Cc1c(OCCCCN2CCN(c3cccc4ccccc34)CC2)ccc2c1C(=O)NC2`, the values for the Ki in assay [4], in assay [1] and in assay [3] were 388 nM, 1.26 nM and 3.22 nM, respectively.

With `O=C1NCc2ccc(OCCCCN3CCN(c4cccc5ccc(F)cc45)CC3)c(F)c21`, the inhibitory constant (Ki) is 2.1 nM in assay [1], 259 nM in assay [2] and 4.56 nM in assay [3].

Take `O=C1NCc2ccc(OCCCN3CCN(c4cccc5c4COCC5)CC3)cc21`: the Ki in assay [5] amounted to 0.108 nM; in assay [1], 11.1 nM.

In assay [5], `O=C1NCc2ccc(OCCCCN3CCN(c4cccc5cc(F)c(F)cc45)CC3)cc21` came in with a Ki of 1.3 nM.

In the case of `Cc1cc2c(cc1OCCCCN1CCN(c3cccc4ccccc34)CC1)C(=O)NC2`, the results for the Ki in assay [4], in assay [1] and in assay [3] were 504 nM, 36.8 nM and 0.803 nM, respectively.

For `Cc1cc2c(cc1OCCCCN1CCN(c3cccc4cc(F)ccc34)CC1)C(=O)NC2`, the Ki in assay [4] is 8.81 nM; in assay [1], 29.5 nM; in assay [3], 1.98 nM.

Take `O=C1NCc2cc(Cl)c(OCCCN3CCN(c4cccc5ccccc45)CC3)cc21`: the Ki in assay [4] worked out at 67.7 nM; in assay [1] it was 34.4 nM; in assay [3] it was 0.814 nM.

Turning to `Cc1cc2c(cc1OCCCN1CCN(c3cccc4cc(F)ccc34)CC1)C(=O)NC2`, the Ki was determined as 13.6 nM in assay [4], 52 nM in assay [1] and 0.517 nM in assay [3].

`O=C1NCc2ccc(OCCCN3CCN(c4cccc5c4CCCC5)CC3)cc21`: the Ki was 4.86 nM in assay [1] and 0.269 nM in assay [3].

On to `O=C1NCc2ccc(OCCCCN3CCN(c4cccc5c4COC5)CC3)cc21`, for which the Ki in assay [1] was determined as 126 nM; in assay [3] it was 6.88 nM.

With `O=C1NCc2cc(F)c(OCCCN3CCN(c4cccc5ccccc45)CC3)cc21`, the Ki in assay [1] worked out at 32.1 nM; in assay [2] it was 54.6 nM; in assay [3], 0.671 nM.

For the compound `O=C1NCc2ccc(OCCCN3CCN(c4cccc5c4OCCC5)CC3)cc21`, the values for the Ki in assay [1] and in assay [3] were 25.3 nM and 0.0501 nM, respectively.

Turning to `Cc1c(OCCCN2CCN(c3cccc4cc(F)ccc34)CC2)ccc2c1C(=O)NC2`, the Ki in assay [4] is 21.4 nM; in assay [1], 12.5 nM; in assay [3] it was 1.08 nM.

`O=C1NCc2ccc(OCCCCN3CCN(c4cccc5ccc(F)cc45)CC3)cc21`: the inhibitory constant (Ki) in assay [5] worked out at 0.838 nM; in assay [1], 11.4 nM.

For `Cc1c(OCCCN2CCN(c3cccc4cccc(F)c34)CC2)ccc2c1C(=O)NC2`, the Ki was 437 nM in assay [4], 16.1 nM in assay [1] and 2.13 nM in assay [3].

On to `O=C1NCc2cc(Cl)c(OCCCN3CCN(c4cccc5cccc(F)c45)CC3)cc21`, for which the results for the Ki in assay [4], in assay [1] and in assay [3] were 20.2 nM, 8.84 nM and 0.859 nM, respectively.

For the compound `O=C1NCc2ccc(OCCCN3CCN(c4cccc5c4CCC5)CC3)cc21`, the inhibitory constant (Ki) in assay [1] was 3.16 nM; in assay [3], over 4.04 nM.

`O=C1NCc2cc(F)c(OCCCCN3CCN(c4cccc5ccccc45)CC3)cc21`: the Ki was found to be 13 nM in assay [1], 30.8 nM in assay [2] and 0.637 nM in assay [3].

Turning to `O=C1NCc2ccc(OCCCN3CCN(c4cccc5cccc(F)c45)CC3)c(F)c21`, the figures for the Ki in assay [1], in assay [2] and in assay [3] were 3.45 nM, 160 nM and under 0.14 nM, respectively.

As to `O=C1NCc2ccc(OCCCCN3CCN(c4cccc5cc(F)ccc45)CC3)c(F)c21`, the Ki in assay [1] came out at 3.07 nM; in assay [2], 2720 nM; in assay [3], 5.01 nM.

On to `O=C1NCc2cc(F)c(OCCCN3CCN(c4cccc5cc(F)ccc45)CC3)cc21`, for which the Ki came out at 9.22 nM in assay [4], 38.5 nM in assay [1], 22.2 nM in assay [2] and 0.88 nM in assay [3].

`O=C1NCc2cc(F)c(OCCCN3CCN(c4cccc5cccc(F)c45)CC3)cc21`: the Ki in assay [1] was 1.19 nM; in assay [2], 15.6 nM; in assay [3] it was under 0.521 nM.

`O=C1NCc2ccc(OCCCN3CCN(c4cccc5cc(F)ccc45)CC3)c(F)c21`: the Ki amounted to 24.7 nM in assay [4], 5.41 nM in assay [1], 37.4 nM in assay [2] and 3.04 nM in assay [3].

On to `O=C1NCc2ccc(OCCCCN3CCN(c4cccc5c4COCC5)CC3)cc21`, for which the Ki in assay [5] worked out at 0.279 nM; in assay [1], 5.44 nM.

Regarding `Cc1cc2c(cc1OCCCN1CCN(c3cccc4ccccc34)CC1)C(=O)NC2`, the figures for the Ki in assay [4], in assay [1] and in assay [3] were 1040 nM, 55.9 nM and 0.67 nM, respectively.

As to `Cc1cc2c(cc1OCCCN1CCN(c3cccc4cccc(F)c34)CC1)C(=O)NC2`, the figures for the Ki in assay [4], in assay [1] and in assay [3] were 174 nM, 65.7 nM and 1.44 nM, respectively.

Consider `O=C1NCc2ccc(OCCCCN3CCN(c4cccc5ccccc45)CC3)c(F)c21`, for which the Ki in assay [1] was found to be 1.08 nM; in assay [2], 2520 nM; in assay [3] it was 3.62 nM.

As for `O=C1NCc2ccc(OCCCN3CCN(c4cccc5ccc(F)cc45)CC3)c(F)c21`, the Ki in assay [4] is 447 nM; in assay [1], 0.904 nM; in assay [2] it was 1770 nM; in assay [3] it was under 0.205 nM.

On to `Cc1c(OCCCCN2CCN(c3cccc4cccc(F)c34)CC2)ccc2c1C(=O)NC2`, for which the inhibition constant Ki in assay [4] was 292 nM; in assay [1], 3.85 nM; in assay [3] it was 2.61 nM.

On to `Cc1c(OCCCN2CCN(c3cccc4ccccc34)CC2)ccc2c1C(=O)NC2`, for which the values for the Ki in assay [4], in assay [1] and in assay [3] were 194 nM, 9.43 nM and 0.615 nM, respectively.

For the compound `O=C1NCc2ccc(OCCCN3CCN(c4cccc5cccc(F)c45)CC3)c(Cl)c21`, the inhibition constant Ki was 230 nM in assay [4], 3.55 nM in assay [1] and 0.312 nM in assay [3].

In the case of `O=C1NCc2cc(F)c(OCCCCN3CCN(c4cccc5ccc(F)cc45)CC3)cc21`, the Ki in assay [1] came out at 10 nM; in assay [2] it was 110 nM; in assay [3], 1.77 nM.

Consider `Cc1cc2c(cc1OCCCCN1CCN(c3cccc4cccc(F)c34)CC1)C(=O)NC2`, for which the Ki in assay [4] was determined as 118 nM; in assay [1], 55 nM; in assay [3] it was 3.61 nM.

On to `O=C1NCc2cc(Cl)c(OCCCCN3CCN(c4cccc5cccc(F)c45)CC3)cc21`, for which the Ki in assay [4] came out at 45.6 nM; in assay [1], 25.3 nM; in assay [3] it was 1.68 nM.

Take `O=C1NCc2ccc(OCCCCN3CCN(c4cccc5cccc(F)c45)CC3)c(F)c21`: the Ki in assay [4] worked out at 48.1 nM; in assay [1] it was 0.568 nM; in assay [2], 57.2 nM; in assay [3], 2.09 nM.

As to `O=C1NCc2ccc(OCCCCN3CCN(c4cccc5c4CCCC5)CC3)cc21`, the Ki in assay [1] is 3.35 nM; in assay [3], 1.92 nM.

For the compound `O=C1NCc2ccc(OCCCCN3CCN(c4cccc5c4CCO5)CC3)cc21`, the Ki came out at 53.4 nM in assay [1] and 1.45 nM in assay [3].

In the case of `O=C1NCc2cc(Cl)c(OCCCCN3CCN(c4cccc5ccccc45)CC3)cc21`, the values for the inhibition constant (Ki) in assay [4], in assay [1] and in assay [3] were 96.3 nM, 24.7 nM and 2.34 nM, respectively.
